The target of assay [1] is T1, Recombinant human IKKβ (residues 1-737) (Homo sapiens, UniProt O14920).
T1 construct: Recombinant human IKKβ (residues 1-737); GST (C); made in house
T1 sequence (O14920 1-737): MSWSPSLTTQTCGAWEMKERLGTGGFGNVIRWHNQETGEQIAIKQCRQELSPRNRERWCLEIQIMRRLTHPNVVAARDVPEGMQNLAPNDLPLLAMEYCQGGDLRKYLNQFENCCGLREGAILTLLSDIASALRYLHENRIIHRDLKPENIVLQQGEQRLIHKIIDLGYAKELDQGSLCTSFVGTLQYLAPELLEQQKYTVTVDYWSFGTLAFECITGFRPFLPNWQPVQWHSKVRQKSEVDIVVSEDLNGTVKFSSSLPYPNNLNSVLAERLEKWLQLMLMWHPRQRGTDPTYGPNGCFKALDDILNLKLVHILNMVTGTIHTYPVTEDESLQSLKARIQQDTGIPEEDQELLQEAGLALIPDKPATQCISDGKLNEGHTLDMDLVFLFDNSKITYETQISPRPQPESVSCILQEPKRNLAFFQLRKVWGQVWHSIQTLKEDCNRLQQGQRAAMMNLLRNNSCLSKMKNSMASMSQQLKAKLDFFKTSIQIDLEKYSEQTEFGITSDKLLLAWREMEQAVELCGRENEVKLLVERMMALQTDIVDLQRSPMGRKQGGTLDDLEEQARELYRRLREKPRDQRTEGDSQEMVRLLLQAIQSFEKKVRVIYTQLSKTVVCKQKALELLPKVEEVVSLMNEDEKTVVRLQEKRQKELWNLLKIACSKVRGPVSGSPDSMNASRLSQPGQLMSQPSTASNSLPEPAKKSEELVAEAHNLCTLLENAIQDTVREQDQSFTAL
Put plainly: IKK2 assay (TR-FRET). Type of assay: biochemical. The conditions noted are these: ATP 1 μM final, read-out: pIC50 against IKK2 (converted). A digest of the protocol:
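TR-FRET readout (665 nm over 620 nm Eu reference) of GST-IB Ser32/36 phosphorylation after 60 min detection. Reaction: 1 μM ATP, 25 nM substrate, 0.5-5 nM GST-fused IKKβ 1-737 from baculovirus, pH 7.4 HEPES buffer, 1.7% DMSO, 15 min room temperature, EDTA-terminated.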

Assay [2] concerns human monocyte stimulated cytokine production (TNF-α). Put plainly: Monocyte assay (LPS-stimulated TNF-α production). Conditions: 24 h, 200 ng/mL LPS, TNF-α by ELISA. Type of assay: cell-based. A digest of the protocol:
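TNF-α release was measured by ELISA after 24 hrs at 37 C. Cells were stimulated with 200 ng/mL E. coli LPS, with compound added 30 minutes beforehand (0.1% DMSO vehicle). Cells were Ficoll/MACS-isolated CD14+ human monocytes adhered at 1×10^6 cells/mL, and viability was checked by trypan blue.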
In general terms: An ELISA detects its analyte on a solid surface through an enzyme-linked reagent.

Where a name gives a salt, the structure may show the parent alone.

With `CCS(=O)(=O)N1CCC(c2c[nH]c3c(C(N)=O)cc(-c4cccc(CNS(=O)(=O)c5cc(F)ccc5C)c4)cc23)CC1` [Example 377, 3-[1-(ethylsulfonyl)-4-piperidinyl]-5-[3-({[(5-fluoro-2-methylphenyl)sulfonyl]amino}methyl)phenyl]-1H-indole-7-carboxamide], the IC50 in assay [1] was ≤ 10 µM; in assay [2], > 1 µM.
As for `CCS(=O)(=O)N1CCC(c2c[nH]c3c(C(N)=O)cc(-c4cccc(CNS(=O)(=O)c5cn(C)c(C)n5)c4)cc23)CC1` [Example 378, 5-[3-({[(1,2-dimethyl-1H-imidazol-4-yl)sulfonyl]amino}methyl)phenyl]-3-[1-(ethylsulfonyl)-4-piperidinyl]-1H-indole-7-carboxamide], the IC50 is ≤ 10 µM in assay [1] and > 1 µM in assay [2].
The matching figures for `CCS(=O)(=O)N1CCC(c2c[nH]c3c(C(N)=O)cc(-c4cccc(CNS(=O)(=O)c5ccccc5)c4)cc23)CC1` [Example 379, 3-[1-(ethylsulfonyl)-4-piperidinyl]-5-(3-{[(phenylsulfonyl)amino]methyl}phenyl)-1H-indole-7-carboxamide]: ≤ 10 µM and > 1 µM.
For `CCS(=O)(=O)N1CCC(c2c[nH]c3c(C(N)=O)cc(-c4cccc(CNS(=O)(=O)c5ccc(F)cc5)c4)cc23)CC1` [Example 380, 3-[1-(ethylsulfonyl)-4-piperidinyl]-5-[3-({[(4-fluorophenyl)sulfonyl]amino}methyl)phenyl]-1H-indole-7-carboxamide], the IC50 in assay [1] was ≤ 10 µM; in assay [2] it was ≤ 1.5 µM.
The matching figures for `CCc1cc(Br)ccc1S(=O)(=O)NCc1cccc(-c2cc(C(N)=O)c3[nH]cc(C4CCN(S(=O)(=O)CC)CC4)c3c2)c1` [Example 381, 5-[3-({[(4-bromo-2-ethylphenyl)sulfonyl]amino}methyl)phenyl]-3-[1-(ethylsulfonyl)-4-piperidinyl]-1H-indole-7-carboxamide]: ≤ 10 µM and > 1 µM.
The matching figures for `CCS(=O)(=O)N1CCC(c2c[nH]c3c(C(N)=O)cc(-c4cccc(CNS(=O)(=O)c5ccc(C(C)(C)C)cc5)c4)cc23)CC1` [Example 383, 5-{3-[({[4-(1,1-dimethylethyl)phenyl]sulfonyl}amino)methyl]phenyl}-3-[1-(ethylsulfonyl)-4-piperidinyl]-1H-indole-7-carboxamide]: ≤ 10 µM and ≤ 1.5 µM.
For `CCS(=O)(=O)N1CCC(c2c[nH]c3c(C(N)=O)cc(-c4cccc(CNS(=O)(=O)c5cccc6nonc56)c4)cc23)CC1` [Example 385, 5-(3-{[(2,1,3-benzoxadiazol-4-ylsulfonyl)amino]methyl}phenyl)-3-[1-(ethylsulfonyl)-4-piperidinyl]-1H-indole-7-carboxamide], the IC50 in assay [1] was ≤ 10 µM; in assay [2], > 1 µM.
For `CCS(=O)(=O)N1CCC(c2c[nH]c3c(C(N)=O)cc(-c4ccc(N5CCN(C)CC5=O)cc4)cc23)CC1` [Example 388, 3-[1-(ethylsulfonyl)-4-piperidinyl]-5-[4-(4-methyl-2-oxo-1-piperazinyl)phenyl]-1H-indole-7-carboxamide], the IC50 in assay [1] is ≤ 10 µM; in assay [2], > 1 µM.
As for `CCS(=O)(=O)N1CCC(c2c[nH]c3c(C(N)=O)cc(-c4ccc(N5CCN(C(C)=O)CC5)nc4)cc23)CC1` [Example 389, 5-[6-(4-acetyl-1-piperazinyl)-3-pyridinyl]-3-[1-(ethylsulfonyl)-4-piperidinyl]-1H-indole-7-carboxamide trifluoroacetate], the results for the IC50 in assay [1] and in assay [2] were ≤ 10 µM and > 1 µM, respectively.
The matching figures for `CCS(=O)(=O)N1CCC(c2c[nH]c3c(C(N)=O)cc(-c4ccc(CNOC)cc4)cc23)CC1` [Example 390, 3-[1-(ethylsulfonyl)-4-piperidinyl]-5-(4-{[(methyloxy)amino]methyl}phenyl)-1H-indole-7-carboxamide]: ≤ 10 µM and > 1 µM.
The matching figures for `CCS(=O)(=O)N1CCC(c2c[nH]c3c(C(N)=O)cc(-c4csc(CN5CCC(N6CCCC6)CC5)c4)cc23)CC1` [Example 392, 3-[1-(ethylsulfonyl)-4-piperidinyl]-5-(5-{[4-(1-pyrrolidinyl)-1-piperidinyl]methyl}-3-thienyl)-1H-indole-7-carboxamide trifluoroacetate]: ≤ 10 µM and > 1 µM.
The matching figures for `CCS(=O)(=O)N1CCC(c2c[nH]c3c(C(N)=O)cc(-c4csc(CN5CCC[C@H]5C(F)(F)F)c4)cc23)CC1` [Example 393, 3-[1-(ethylsulfonyl)-4-piperidinyl]-5-(5-{[(2S)-2-(trifluoromethyl)-1-pyrrolidinyl]methyl}-3-thienyl)-1H-indole-7-carboxamide trifluoroacetate]: ≤ 10 µM and > 1 µM.
Regarding `CC(C)S(=O)(=O)N1CCC(c2c[nH]c3c(C(N)=O)cc(-c4csc(CN5CCC[C@@H]5CO)c4)cc23)CC1` [Example 394, 5-(5-{[(2R)-2-(hydroxymethyl)-1-pyrrolidinyl]methyl}-3-thienyl)-3-{1-[(1-methylethyl)sulfonyl]-4-piperidinyl}-1H-indole-7-carboxamide], the IC50 in assay [1] is ≤ 10 µM; in assay [2] it was ≤ 1.5 µM.
As for `CC(C)S(=O)(=O)N1CCC(c2c[nH]c3c(C(N)=O)cc(-c4csc(CN5CC[C@H](O)C5)c4)cc23)CC1` [Example 395, 5-(5-{[(3S)-3-hydroxy-1-pyrrolidinyl]methyl}-3-thienyl)-3-{1-[(1-methylethyl)sulfonyl]-4-piperidinyl}-1H-indole-7-carboxamide], the figures for the IC50 in assay [1] and in assay [2] were ≤ 10 µM and ≤ 1.5 µM, respectively.
For the molecule `CC(C)S(=O)(=O)N1CCC(c2c[nH]c3c(C(N)=O)cc(-c4csc(CN(C)C5CCCC5)c4)cc23)CC1` [Example 396, 5-(5-{[cyclopentyl(methyl)amino]methyl}-3-thienyl)-3-{1-[(1-methylethyl)sulfonyl]-4-piperidinyl}-1H-indole-7-carboxamide], the IC50 in assay [1] was ≤ 10 µM; in assay [2], ≤ 1.5 µM.
With `CC(C)S(=O)(=O)N1CCC(c2c[nH]c3c(C(N)=O)cc(-c4csc(CN(C)CCO)c4)cc23)CC1` [Example 397, 5-(5-{[(2-hydroxyethyl)(methyl)amino]methyl}-3-thienyl)-3-{1-[(1-methylethyl)sulfonyl]-4-piperidinyl}-1H-indole-7-carboxamide], the results for the IC50 in assay [1] and in assay [2] were ≤ 10 µM and ≤ 1.5 µM, respectively.
The matching figures for `C=CCN(C)Cc1cc(-c2cc(C(N)=O)c3[nH]cc(C4CCN(S(=O)(=O)CC)CC4)c3c2)cs1` [Example 399, 3-[1-(ethylsulfonyl)-4-piperidinyl]-5-(5-{[methyl(2-propen-1-yl)amino]methyl}-3-thienyl)-1H-indole-7-carboxamide]: ≤ 10 µM and ≤ 1.5 µM.
As to `CCS(=O)(=O)N1CCC(c2c[nH]c3c(C(N)=O)cc(-c4csc(CN(C)Cc5c(C)n[nH]c5C)c4)cc23)CC1` [Example 400, 5-(5-{[[(3,5-dimethyl-1H-pyrazol-4-yl)methyl](methyl)amino]methyl}-3-thienyl)-3-[1-(ethylsulfonyl)-4-piperidinyl]-1H-indole-7-carboxamide], the IC50 in assay [1] is ≤ 10 µM; in assay [2] it was ≤ 1.5 µM.
The matching figures for `CCS(=O)(=O)N1CCC(c2c[nH]c3c(C(N)=O)cc(-c4csc(CN(C)CC#N)c4)cc23)CC1` [Example 401, 5-(5-{[(cyanomethyl)(methyl)amino]methyl}-3-thienyl)-3-[1-(ethylsulfonyl)-4-piperidinyl]-1H-indole-7-carboxamide]: ≤ 10 µM and ≤ 1.5 µM.
As for `CCC(C)N(C)Cc1cc(-c2cc(C(N)=O)c3[nH]cc(C4CCN(S(=O)(=O)CC)CC4)c3c2)cs1` (stereo not drawn) [Example 402, 3-[1-(ethylsulfonyl)-4-piperidinyl]-5-(5-{[methyl(1-methylpropyl)amino]methyl}-3-thienyl)-1H-indole-7-carboxamide], the values for the IC50 in assay [1] and in assay [2] were ≤ 10 µM and ≤ 1.5 µM, respectively.
The matching figures for `CCS(=O)(=O)N1CCC(c2c[nH]c3c(C(N)=O)cc(-c4csc(CN(C)C5CCC5)c4)cc23)CC1` [Example 404, 5-(5-{[cyclobutyl(methyl)amino]methyl}-3-thienyl)-3-[1-(ethylsulfonyl)-4-piperidinyl]-1H-indole-7-carboxamide trifluoroacetate]: ≤ 10 µM and ≤ 1.5 µM.

The values above are taken from patent US8063071B2 (GlaxoSmithKline, LLC, priority 2007, dated 2011).
